{"source": "ChEMBL document CHEMBL4359891", "about": "“Synthesis of polyfluoroalkyl sp2-iminosugar glycolipids and evaluation of their immunomodulatory properties towards anti-tumor, anti-leishmanial and anti-inflammatory therapies” (Eur J Med Chem, 2019)", "key": {"SW1573": {"system": "SW1573", "assay": "Antiproliferative activity against human SW1573 cells assessed as growth inhibition after 48 hrs by SRB assay", "assay_type": "functional", "conditions": "SW1573, 48 h"}, "[1]": {"assay": "Critical aggregation concentration of compound by spectrofluorophotometric method", "assay_type": "physicochemical"}, "THP-1": {"system": "THP-1", "assay": "Cytotoxicity against human THP1 cells assessed as reduction in cell viability after 72 hrs by MTT assay", "assay_type": "cell-based", "conditions": "THP-1, 72 h"}, "A549": {"system": "A549", "assay": "Antiproliferative activity against human A549 cells assessed as growth inhibition after 48 hrs by SRB assay", "assay_type": "functional", "conditions": "A549, 48 h"}, "WiDr": {"system": "WiDr", "assay": "Antiproliferative activity against human WiDr cells assessed as growth inhibition after 48 hrs by SRB assay", "assay_type": "functional"}, "HeLa": {"system": "HeLa", "assay": "Antiproliferative activity against human HeLa cells assessed as growth inhibition after 48 hrs by SRB assay", "assay_type": "functional"}, "HBL-100": {"system": "HBL-100", "assay": "Antiproliferative activity against human HBL100 cells assessed as growth inhibition after 48 hrs by SRB assay", "assay_type": "functional", "conditions": "HBL-100, 48 h"}, "Leishmania donovani": {"system": "Leishmania donovani", "assay": "Antileishmanial activity against intracellular amastigote stage of Leishmania donovani fused with LUC infected in human THP1 cells assessed as parasite growth inhibition after 72 hrs post infection by luciferase based assay", "assay_type": "functional, organism-based", "conditions": "THP-1, 72 h"}, "T47D": {"system": "T47D", "assay": "Antiproliferative activity against human T47D cells assessed as growth inhibition after 48 hrs by SRB assay", "assay_type": "functional"}, "[2]": {"molecular_target": "Mitogen-activated protein kinase 14 (Mus musculus) (UniProt P47811)", "sequence (P47811 whole entry)": "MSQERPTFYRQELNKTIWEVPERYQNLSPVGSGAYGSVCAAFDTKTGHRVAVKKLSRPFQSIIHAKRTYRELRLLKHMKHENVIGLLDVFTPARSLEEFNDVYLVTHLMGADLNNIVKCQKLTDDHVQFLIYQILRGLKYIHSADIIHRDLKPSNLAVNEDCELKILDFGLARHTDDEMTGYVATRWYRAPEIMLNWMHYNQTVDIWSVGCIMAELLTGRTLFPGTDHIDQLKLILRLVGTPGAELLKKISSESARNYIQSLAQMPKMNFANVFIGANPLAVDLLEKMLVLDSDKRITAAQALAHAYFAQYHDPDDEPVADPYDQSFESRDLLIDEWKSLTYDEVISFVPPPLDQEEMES", "assay": "Activation of p38 alpha MAPK in mouse BV2 cells assessed as p38 phosphorylation at 1 uM incubated for 15 to 60 mins by Western blot analysis", "assay_type": "cell-based"}, "BV-2 [3]": {"system": "BV-2", "assay": "Antiinflammatory activity against mouse BV2 cells assessed as reduction in LPS-induced iNOS protein expression at 1 uM by Western blot analysis", "assay_type": "functional, cell-based"}, "BV-2 [4]": {"system": "BV-2", "assay": "Cytotoxicity against mouse BV2 cells assessed as reduction in cell viability up to 10 uM by crystal violet staining based assay"}, "[5]": {"molecular_target": "Mitogen-activated protein kinase 14 (Mus musculus) (UniProt P47811)", "assay": "Activation of p38 alpha MAPK in mouse BV2 cells assessed as p38 phosphorylation at 1 uM by Western blot analysis", "assay_type": "cell-based", "conditions": "TDE = time-dependent effect"}, "BV-2 [6]": {"system": "BV-2", "assay": "Antiinflammatory activity against mouse BV2 cells assessed as reduction in LPS-induced nitrite level at 1 to 10 uM by Griess assay", "assay_type": "functional, cell-based"}, "[7]": {"molecular_target": "Mitogen-activated protein kinase 14 (Mus musculus) (UniProt P47811)", "assay": "Activation of p38 alpha MAPK in mouse BV2 cells assessed as p38 phosphorylation at 10 uM by Western blot analysis", "assay_type": "cell-based", "conditions": "TDE = time-dependent effect"}, "BV-2 [8]": {"system": "BV-2", "assay": "Antiinflammatory activity against mouse BV2 cells assessed as reduction in LPS-induced iNOS protein expression at 10 uM by Western blot analysis", "assay_type": "functional, cell-based"}}, "note": "The source made the active and inactive calls. The calls are words filed in the database; no cut-off is given here."}
{"smiles": "O=C(CCC(F)(F)C(F)(F)C(F)(F)C(F)(F)C(F)(F)C(F)(F)C(F)(F)C(F)(F)F)NCCCCCCCCCN[C@@H]1[C@H](O)[C@@H](O)[C@H](O)[C@H]2COC(=O)N21", "values": [{"measurement": "GI50", "setting": "SW1573", "result": "> 100", "unit": "µM"}, {"measurement": "CAC", "setting": "[1]", "result": 6.9, "unit": "µM"}, {"measurement": "EC50", "setting": "THP-1", "result": 152, "unit": "µM"}, {"measurement": "GI50", "setting": "A549", "result": "> 100", "unit": "µM"}, {"measurement": "GI50", "setting": "WiDr", "result": "> 100", "unit": "µM"}, {"measurement": "GI50", "setting": "HeLa", "result": "> 100", "unit": "µM"}, {"measurement": "GI50", "setting": "HBL-100", "result": "> 100", "unit": "µM"}, {"measurement": "EC50", "setting": "Leishmania donovani", "result": 30, "unit": "µM"}, {"measurement": "GI50", "setting": "T47D", "result": "> 100", "unit": "µM"}]}
{"smiles": "CCCCCCCCCCCCS(=O)(=O)[C@@H]1[C@H](O)[C@@H](O)[C@@H](O)[C@H]2COC(=O)N21", "values": [{"measurement": "Activity", "setting": "[2]", "result": "Active"}]}
{"smiles": "CCCCCCCCCCCCCCCCOP(=O)([O-])OCC[N+](C)(C)C", "note": "[MILTEFOSINE]", "values": [{"measurement": "EC50", "setting": "Leishmania donovani", "result": 0.44, "unit": "µM"}]}
{"smiles": "O=C(CCC(F)(F)C(F)(F)C(F)(F)C(F)(F)C(F)(F)C(F)(F)F)NCCCCCCCCCN[C@@H]1[C@H](O)[C@@H](O)[C@@H](O)[C@H]2COC(=O)N21", "values": [{"measurement": "Activity", "setting": "BV-2 [3]", "result": "Active"}, {"measurement": "Activity", "setting": "BV-2 [4]", "result": "Non-Toxic"}, {"measurement": "GI50", "setting": "SW1573", "result": 14, "unit": "µM"}, {"measurement": "CAC", "setting": "[1]", "result": 14, "unit": "µM"}, {"measurement": "EC50", "setting": "THP-1", "result": 56.6, "unit": "µM"}, {"measurement": "GI50", "setting": "A549", "result": 17, "unit": "µM"}, {"measurement": "Activity", "setting": "[5]", "result": "Tde"}, {"measurement": "GI50", "setting": "WiDr", "result": 17, "unit": "µM"}, {"measurement": "GI50", "setting": "HeLa", "result": 10, "unit": "µM"}, {"measurement": "GI50", "setting": "HBL-100", "result": 16, "unit": "µM"}, {"measurement": "Activity", "setting": "BV-2 [6]", "result": "Active"}, {"measurement": "EC50", "setting": "Leishmania donovani", "result": 27.2, "unit": "µM"}, {"measurement": "GI50", "setting": "T47D", "result": 15, "unit": "µM"}]}
{"smiles": "O=C(CCC(F)(F)C(F)(F)C(F)(F)C(F)(F)C(F)(F)C(F)(F)F)NCCCCCCCCCN[C@@H]1[C@H](O)[C@@H](O)[C@H](O)[C@H]2COC(=O)N21", "values": [{"measurement": "Activity", "setting": "BV-2 [4]", "result": "Non-Toxic"}, {"measurement": "Activity", "setting": "[7]", "result": "Tde"}, {"measurement": "GI50", "setting": "SW1573", "result": 14, "unit": "µM"}, {"measurement": "CAC", "setting": "[1]", "result": 22, "unit": "µM"}, {"measurement": "EC50", "setting": "THP-1", "result": 65, "unit": "µM"}, {"measurement": "GI50", "setting": "A549", "result": 12, "unit": "µM"}, {"measurement": "Activity", "setting": "BV-2 [8]", "result": "Active"}, {"measurement": "GI50", "setting": "WiDr", "result": 13, "unit": "µM"}, {"measurement": "GI50", "setting": "HeLa", "result": 12, "unit": "µM"}, {"measurement": "GI50", "setting": "HBL-100", "result": 16, "unit": "µM"}, {"measurement": "Activity", "setting": "BV-2 [6]", "result": "Active"}, {"measurement": "EC50", "setting": "Leishmania donovani", "result": 24.6, "unit": "µM"}, {"measurement": "GI50", "setting": "T47D", "result": 11, "unit": "µM"}]}
{"smiles": "O=C(CCC(F)(F)C(F)(F)C(F)(F)C(F)(F)F)NCCCCCCCCCN[C@@H]1[C@H](O)[C@@H](O)[C@H](O)[C@H]2COC(=O)N21", "values": [{"measurement": "GI50", "setting": "SW1573", "result": "> 100", "unit": "µM"}, {"measurement": "CAC", "setting": "[1]", "result": 77.9, "unit": "µM"}, {"measurement": "EC50", "setting": "THP-1", "result": "> 200", "unit": "µM"}, {"measurement": "GI50", "setting": "A549", "result": "> 100", "unit": "µM"}, {"measurement": "GI50", "setting": "WiDr", "result": "> 100", "unit": "µM"}, {"measurement": "GI50", "setting": "HeLa", "result": "> 100", "unit": "µM"}, {"measurement": "GI50", "setting": "HBL-100", "result": "> 100", "unit": "µM"}, {"measurement": "EC50", "setting": "Leishmania donovani", "result": "> 40", "unit": "µM"}, {"measurement": "GI50", "setting": "T47D", "result": "> 100", "unit": "µM"}]}
{"smiles": "O=C(CCC(F)(F)C(F)(F)C(F)(F)C(F)(F)C(F)(F)C(F)(F)C(F)(F)C(F)(F)F)NCCCCCCCCCN[C@@H]1[C@H](O)[C@@H](O)[C@@H](O)[C@H]2COC(=O)N21", "values": [{"measurement": "GI50", "setting": "SW1573", "result": "> 100", "unit": "µM"}, {"measurement": "CAC", "setting": "[1]", "result": 13, "unit": "µM"}, {"measurement": "EC50", "setting": "THP-1", "result": 124, "unit": "µM"}, {"measurement": "GI50", "setting": "A549", "result": "> 100", "unit": "µM"}, {"measurement": "GI50", "setting": "WiDr", "result": "> 100", "unit": "µM"}, {"measurement": "GI50", "setting": "HeLa", "result": "> 100", "unit": "µM"}, {"measurement": "GI50", "setting": "HBL-100", "result": "> 100", "unit": "µM"}, {"measurement": "EC50", "setting": "Leishmania donovani", "result": 22.9, "unit": "µM"}, {"measurement": "GI50", "setting": "T47D", "result": "> 100", "unit": "µM"}]}
{"smiles": "O=C(CCC(F)(F)C(F)(F)C(F)(F)C(F)(F)F)NCCCCCCCCCN[C@@H]1[C@H](O)[C@@H](O)[C@@H](O)[C@H]2COC(=O)N21", "values": [{"measurement": "GI50", "setting": "SW1573", "result": "> 100", "unit": "µM"}, {"measurement": "CAC", "setting": "[1]", "result": 118, "unit": "µM"}, {"measurement": "EC50", "setting": "THP-1", "result": "> 200", "unit": "µM"}, {"measurement": "GI50", "setting": "A549", "result": 76, "unit": "µM"}, {"measurement": "GI50", "setting": "WiDr", "result": "> 100", "unit": "µM"}, {"measurement": "GI50", "setting": "HeLa", "result": 45, "unit": "µM"}, {"measurement": "GI50", "setting": "HBL-100", "result": "> 100", "unit": "µM"}, {"measurement": "EC50", "setting": "Leishmania donovani", "result": "> 40", "unit": "µM"}, {"measurement": "GI50", "setting": "T47D", "result": 96, "unit": "µM"}]}
